Assay results as given in US20050203056A1, “Carboxyl-reduced derivatives of hyaluronic acid, preparation thereof, use thereof as a medicinal product and the pharmaceutical compositions containing them” (Aventis Pharma S.A., priority 2003, published 2005).

Assays:
[1] = molecular target: aggrecanase; experiment: Effect on the aggrecanase in synovial fluids or on preparations of recombinant ADAMTS protein (BC-3 ELISA, Agg1mut substrate); assay type: biochemical
Description: Effect of the carboxyl-reduced derivatives on the aggrecanase in synovial fluids or on preparations of recombinant ADAMTS protein.
The analysis is carried out on 96-well plates.
In each well, a fixed volume of synovial fluid or aggrecanase activity generating a known increase, between 1.0 and 1.4 absorbance units (405 nm), under the conditions of the analysis, is mixed with 3 μl of solution of compound from the respective dilution step. Dulbecco's modified Eagle's medium (DMEM) is added to each well to give a final volume of 300 μl. The plate is then incubated for 1 hour at 37° C. in a carbon dioxide atmosphere.
After the addition of 5 μl of a solution of […] of recombinant substrate Agglmut in DMEM to each well (substrate as described by Bartnik E. et al., EP 785274, 1997), the reagent mixture is incubated for 4 hours at 37° C. under a carbon dioxide atmosphere.
In a first step, the microplate is coated with 100 μl per well of a commercial goat anti-mouse IgG antibody for 1 hour at ambient temperature (5 μg/ml in a phosphate buffered saline solution, pH 7.4 [PBS buffer]). After washing with the PBS buffer containing 0.1% of Tween-20 (washing buffer), the wells are blocked by means of a step consisting of a one hour incubation with 100 μl per well of 5% bovine serum albumin in a PBS buffer containing 0.05% of Tween-20. Following another rinse with the washing buffer, each well is incubated with 100 μl of a solution, diluted to 1:1000, of BC-3 antibody in a PBS buffer containing 0.05% of Tween 20 and 0.5% of bovine serum albumin, at ambient temperature for one hour. This antibody recognizes the typical aggrecanase cleavage fragments (Hughes C. E. et al., Biochem. J. 305 (3), 799-804, 1995).
After another rinse of the analytical plate with the washing buffer, the complete set of mixtures originating from the preceding digestion is transferred to this plate, well by well, and incubated at ambient temperature for one hour. The plate is again washed as above. Next, 100 μl of the second antibody (anti-human IgG antibody labeled with peroxidase, 1:1000 in PBS containing 0.5% of BSA and 0.05% of Tween-20) are added to each well, with subsequent incubation at ambient temperature again for one hour. After a final rinse with the washing buffer, the color development is initiated by adding 100 μl of ABTS substrate solution (2 mg/ml, 2,2′-azinobis(3-ethyl-benzothiazoline)sulfonic acid) in 40 mM of sodium citrate plus 60 mM of disodium hydrogen phosphate, adjusted to a pH of 4.4 by adding acetic acid; 0.25 μl of 35% hydrogen peroxide added per ml immediately before measurement). […] The development is stopped as soon as the maximum signal (405 nm) in the absorbance range of 1.0 to 1.4 is reached.

[2] = molecular target: T1, bovine factor Xa (Bos taurus, UniProt P00743); details: calibrated against Enoxaparin
T1 sequence (P00743 234-492 limits assumed): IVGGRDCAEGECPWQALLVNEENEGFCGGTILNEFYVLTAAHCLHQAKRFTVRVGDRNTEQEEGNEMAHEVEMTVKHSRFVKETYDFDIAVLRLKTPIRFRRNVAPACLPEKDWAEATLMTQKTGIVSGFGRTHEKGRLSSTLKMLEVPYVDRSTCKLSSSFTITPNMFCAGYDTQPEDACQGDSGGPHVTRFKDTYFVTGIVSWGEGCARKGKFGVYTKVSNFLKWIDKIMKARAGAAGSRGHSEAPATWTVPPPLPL
Description: For the calibration, a standard sample of low molecular weight heparin (Enoxaparin) was used as reference.
The serial dilutions of the assay compound are prepared in a 0.046 M Tris buffer, pH 8.4, containing 0.15 M NaCl, 0.007 M EDTA, 0.1% of Tween 80 and 0.12 IU/ml of human antithrombin III. The samples of 50 μl of the respective dilutions are incubated with 50 μl of bovine factor Xa (13.6 U/ml) at 37° C. for 80 seconds. Next, 50 μl of chromogenic substrate, 1.1 mM S-2765, are added. […] The activity of the deblocked factor Xa is indicated by the emission of p-nitroaniline from the substrate.

[3] = molecular target: T2, human neutrophil elastase (Homo sapiens, UniProt P08246)
T2 sequence (P08246 30-267): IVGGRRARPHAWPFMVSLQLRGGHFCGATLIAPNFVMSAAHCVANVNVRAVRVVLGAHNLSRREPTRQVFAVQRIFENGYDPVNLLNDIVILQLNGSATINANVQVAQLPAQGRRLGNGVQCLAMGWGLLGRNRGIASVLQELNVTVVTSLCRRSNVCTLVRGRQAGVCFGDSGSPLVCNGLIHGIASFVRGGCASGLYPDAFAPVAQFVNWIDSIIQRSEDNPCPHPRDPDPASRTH
Description: A commercially available enzyme (for example, human neutrophil elastase, sigma No. E8140) is reconstituted in aliquots of 0.1 mg per vial with 0.276 ml of 50 mM sodium acetate buffer, pH 5.5, containing 200 mM NaCl (stock solution of the enzyme); 11 μl of this stock solution are diluted with 1.1 ml of the HEPES buffer above (enzyme assay solution).
The substrate solution is prepared by dissolving 118 mg of methoxy-succinyl-L-Ala-L-Ala-L-Pro-L-Val-p-nitro-anilide in 1 ml of DMSO (stock solution, for example sigma No. M4765). In view of the application in the analysis, 9 μl of stock solution are then diluted in 1.19 ml of water.
The serial dilutions of the assay compounds are prepared in 100 mM of HEPES buffer containing 500 mM NaCl. The analysis is carried out on colorless 96-well polystyrene microplates (for example, Corning Costar, No. 3695).
10 μl of assay enzyme solution are mixed with 10 μl of the respective diluted compound solution and 10 μl of the substrate solution. After incubation for 15 min, the cleavage of the substrate is read as increase in absorbance at 405 nm.

[4] = molecular target: T1, bovine factor Xa; details: calibration reference; cited from earlier work

Row | Substance | IC50 (μg/ml) for inhibition [1] | % conversion ([1]; glycosaminoglycan 0.0001 μg/ml) [%] | % conversion ([1]; glycosaminoglycan 0.001 μg/ml) [%] | % conversion ([1]; glycosaminoglycan 0.01 μg/ml) [%] | % conversion ([1]; glycosaminoglycan 0.1 μg/ml) [%] | % conversion ([1]; glycosaminoglycan 1 μg/ml) [%] | % conversion ([1]; glycosaminoglycan 10 μg/ml) [%] | factor Xa inhibitory activity [2] [U/mg] | IC50 [3] [µg/mL] | factor Xa inhibitory activity of the reference standard [4] [U/mg] | aggrecanase-inhibiting activity [1]
1 | Carboxyl-Reduced Hyaluronic Acid Sodium Salt [example 1] | no | 100 | 100 | 100 | 100 | 100 | 100 | – | – | – | –
2 | Carboxyl-Reduced and Persulfated Hyaluronic Acid Sodium Salt [example 3] | 0.025 µg/mL | 93 | 84.9 | 54.3 | 28 | 27.4 | 21 | 1.75 | 7.0 | – | –
3 | Enoxaparin | – | – | – | – | – | – | – | – | – | 100 | –
4 | hyaluronic acid [reference compound] | – | – | – | – | – | – | – | – | – | – | no aggrecanase-inhibiting activity
